Each structure is given as a SMILES string. Numbered stars: 1 amine (or outer) side, 2 acyl side, 3 side chain; on linkers, the order of the positions; unused ones are H or OH. Square brackets hold non-standard residues; d marks the D form. Peptide text beside a SMILES is read from it. * marks the point of attachment. DOTA = O=C(O)CN1CCN(CC(=O)O)CCN(CC(=O)*)CCN(CC(=O)O)CC1; Ala(9-anthryl) = N[C@@H](Cc1c2ccccc2cc2ccccc12)C(=O)O; Gly(N-(3-F-4-Me-benzyl)) = Cc1ccc(CNCC(=O)*)cc1F; Butanoyl(4-(4-I-phenyl)) = O=C(CCCc1ccc(I)cc1)*; Api(1-amidino) = N=C(N)N1CCC(N)(C(=O)O)CC1; Hydrocinnamoyl(4-Me) = Cc1ccc(CCC(=O)*)cc1; Bip = N[C@@H](Cc1ccc(-c2ccccc2)cc1)C(=O)O; Hydrocinnamoyl(4-I) = O=C(CCc1ccc(I)cc1)*; Phe(4-CN) = N#Cc1ccc(C[C@H](N)C(=O)O)cc1; Gly(Nα-CH2(4-Pyr)) = O=C(O)CNCc1ccncc1; Phe(3-F) = N[C@@H](Cc1cccc(F)c1)C(=O)O; 2Nal = N[C@@H](Cc1ccc2ccccc2c1)C(=O)O; d2Nal = N[C@H](Cc1ccc2ccccc2c1)C(=O)O; X1 = O=C(CN1CCC(N[*:1])CC1)[*:2]; dCya = N[C@H](CS(=O)(=O)O)C(=O)O; 4Pal = N[C@@H](Cc1ccncc1)C(=O)O; d4Pal = N[C@H](Cc1ccncc1)C(=O)O; Cha = N[C@@H](CC1CCCCC1)C(=O)O; N(octyl)Gly = CCCCCCCCNCC(=O)O; 4Amb = NCc1ccc(C(=O)O)cc1; Api = NC1(C(=O)O)CCNCC1; PEG2 = NCCOCCOCCC(=O)O; AEEA = NCCOCCOCC(=O)O; Ahx = NCCCCCC(=O)O; azaGly = NNC(=O)O

This is an account of results in US20250312499A1, “KISSPEPTIN RECEPTOR (KISS1R) TARGETED THERAPEUTICS AND USES THEREOF” (priority 2024, published 2025).

For the assay, the target named is human kisspeptin receptor (Homo sapiens (Human), UniProt Q969F8). Briefly: Human KISS1R binding assay (membrane competition binding). The following applies: 90 min at room temperature; competition with 0.2 nM [125I]-metastin (45-54); Flp-In T-Rex 293 kisspeptin membranes; metal complexes nonradioactive Ga, In, Lu; read-out: hKiSSR Binding Ki (90 min). Put shortly: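 Membranes from tetracycline-induced (48 h) Flp-In T-Rex 293 cells expressing receptor, 5–10 μg, incubated 90 min at room temperature with 0.2 nM [125I]-metastin (45-54) and competitor (typically 0–10,000 nM) in Tris/Mg/Ca/EGTA/0.1% BSA, pH 7.4. Filtration, washing, counting; Ki by non-linear regression.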
Chain of human kisspeptin receptor (Q969F8 whole entry): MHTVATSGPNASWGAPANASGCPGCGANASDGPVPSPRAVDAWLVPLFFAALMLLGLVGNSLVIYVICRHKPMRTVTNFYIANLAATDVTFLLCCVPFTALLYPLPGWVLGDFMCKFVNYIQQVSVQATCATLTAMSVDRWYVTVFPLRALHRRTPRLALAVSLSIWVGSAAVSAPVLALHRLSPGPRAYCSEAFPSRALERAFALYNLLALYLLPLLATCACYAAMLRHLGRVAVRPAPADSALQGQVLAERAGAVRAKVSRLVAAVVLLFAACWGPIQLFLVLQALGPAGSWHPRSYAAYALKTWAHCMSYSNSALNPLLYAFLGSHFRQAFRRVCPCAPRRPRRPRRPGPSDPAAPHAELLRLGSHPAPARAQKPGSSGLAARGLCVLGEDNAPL

By Ki is commonly meant the dissociation constant of the complex between target and ligand, obtained from inhibition or displacement. With `Cc1ccc(CNCC(=O)N2CCC(NC(=O)[C@H](CC(C)C)NC(=O)NNC(=O)[C@H](Cc3ccccc3)NC(=O)[C@@H](NC(=O)[C@H](CC(N)=O)NC(=O)[C@@H](Cc3c[nH]c4ccccc34)NC(=O)[C@@H](Cc3ccc(O)cc3)NC(=O)COCCOCCNC(=O)CN3CCN(CC(=O)O)CCN(CC(=O)O)CCN(CC(=O)O)CC3)[C@@H](C)O)(C(=O)N[C@@H](Cc3c[nH]c4ccccc34)C(N)=O)CC2)cc1F` [Compound 57] ({DOTA-AEEA}-[dY][dW]NTF[azaGly]L[Api](Gly(N-(3-F-4-Me-benzyl)))W-NH2), the Ki was below 10 nM.
Turning to `Cc1ccc(CNCC(=O)N2CCC(NC(=O)[C@H](CC(C)C)NC(=O)NNC(=O)[C@H](Cc3ccccc3)NC(=O)[C@@H](NC(=O)[C@H](CC(N)=O)NC(=O)[C@@H](CCC(=O)O)NC(=O)c3ccc(CNC(=O)CN4CCN(CC(=O)O)CCN(CC(=O)O)CCN(CC(=O)O)CC4)cc3)[C@@H](C)O)(C(=O)N[C@@H](Cc3ccc(O)cc3)C(N)=O)CC2)cc1F` [Compound 206] ({DOTA-4Amb}-[dE]NTF[azaGly]L[Api](Gly(N-(3-F-4-Me-benzyl)))Y-NH2), the Ki was below 10 nM.
Regarding `CCCCCCCCNCC(=O)N1CCC(NC(=O)[C@H](CC(C)C)NC(=O)NNC(=O)[C@H](Cc2ccccc2)NC(=O)[C@@H](NC(=O)[C@H](CC(N)=O)NC(=O)[C@@H](Cc2ccc3ccccc3c2)NC(=O)[C@@H](Cc2ccc(O)cc2)NC(=O)CCCCCNC(=O)CN2CCN(CC(=O)O)CCN(CC(=O)O)CCN(CC(=O)O)CC2)[C@@H](C)O)(C(=O)N[C@H](Cc2c[nH]c3ccccc23)C(N)=O)CC1` [Compound 374] ({DOTA-Ahx}-[dY][d2Nal]NTF[azaGly]L[Api](N(octyl)Gly)[dW]-NH2), the inhibitory constant (Ki) is below 10 nM.
`Cc1ccc(CNCC(=O)N2CCC(NC(=O)[C@H](CC(C)C)NC(=O)NNC(=O)[C@H](CC3CCCCC3)NC(=O)[C@@H](NC(=O)[C@H](CC(N)=O)NC(=O)CCCCCNC(=O)CN3CCN(CC(=O)O)CCN(CC(=O)O)CCN(CC(=O)O)CC3)[C@@H](C)O)(C(=O)N[C@@H](Cc3c[nH]c4ccccc34)C(N)=O)CC2)cc1F` [Compound 313] ({DOTA-Ahx}-NT[Cha][azaGly]L[Api](Gly(N-(3-F-4-Me-benzyl)))W-NH2): the Ki is below 10 nM.
The result for `Cc1ccc(CNCC(=O)N2CCC(NC(=O)[C@H](CC(C)C)NC(=O)NNC(=O)[C@H](CC3CCCCC3)NC(=O)[C@@H](NC(=O)[C@H](CC(N)=O)NC(=O)[C@@H](Cc3c[nH]c4ccccc34)NC(=O)[C@H](N)Cc3ccc(O)cc3)[C@@H](C)O)(C(=O)N[C@@H](Cc3c[nH]c4ccccc34)C(N)=O)CC2)cc1F` [Compound 404] (H-[dY][dW]NT[Cha][azaGly]L[Api](Gly(N-(3-F-4-Me-benzyl)))W-NH2) reads below 10 nM; that for `Cc1ccc(CCC(=O)NCCOCCOCCC(=O)N[C@H](Cc2ccc(O)cc2)C(=O)N[C@@H](CCCCNC(=O)CN2CCN(CC(=O)O)CCN(CC(=O)O)CCN(CC(=O)O)CC2)C(=O)N[C@@H](CC(N)=O)C(=O)N[C@H](C(=O)N[C@@H](Cc2ccccc2)C(=O)NNC(=O)N[C@@H](CC(C)C)C(=O)NC2(C(=O)N[C@@H](Cc3ccc(C#N)cc3)C(N)=O)CCN(C(=N)N)CC2)[C@@H](C)O)cc1` [Compound 333] ({Hydrocinnamoyl(4-Me)-PEG2}-[dY]K(DOTA)NTF[azaGly]L[Api(1-amidino)][Phe(4-CN)]-NH2), below 10 nM.
In the case of `Cc1ccc(CNCC(=O)N2CCC(NC(=O)[C@H](CC(C)C)NC(=O)NNC(=O)[C@H](Cc3cccc(F)c3)NC(=O)[C@@H](NC(=O)[C@H](CC(N)=O)NC(=O)[C@H](CCC(=O)O)NC(=O)CN3CCC(NC(=O)CN4CCN(CC(=O)O)CCN(CC(=O)O)CCN(CC(=O)O)CC4)CC3)[C@@H](C)O)(C(=O)N[C@@H](Cc3c[nH]c4ccccc34)C(N)=O)CC2)cc1F` [Compound 159] ({DOTA}-[X1]ENT[Phe(3-F)][azaGly]L[Api](Gly(N-(3-F-4-Me-benzyl)))W-NH2), the inhibition constant (Ki) was below 10 nM.
As to `CC(C)C[C@H](NC(=O)NNC(=O)[C@H](Cc1ccccc1)NC(=O)[C@@H](NC(=O)[C@H](CC(N)=O)NC(=O)[C@@H](Cc1ccc2ccccc2c1)NC(=O)[C@@H](Cc1ccc(O)cc1)NC(=O)CCCCCNC(=O)[C@@H](CCCCNC(=O)CCCc1ccc(I)cc1)NC(=O)CCCCCNC(=O)CN1CCN(CC(=O)O)CCN(CC(=O)O)CCN(CC(=O)O)CC1)[C@@H](C)O)C(=O)NC1(C(=O)N[C@@H](Cc2c[nH]c3ccccc23)C(N)=O)CCN(C(=N)N)CC1` [Compound 337] ({DOTA-Ahx}-[dK](Butanoyl(4-(4-I-phenyl)))[Ahx][dY][d2Nal]NTF[azaGly]L[Api(1-amidino)]W-NH2), the Ki is below 10 nM.
Take `Cc1ccc(CNCC(=O)N2CCC(NC(=O)[C@H](CC(C)C)NC(=O)NNC(=O)[C@H](Cc3cccc(F)c3)NC(=O)[C@@H](NC(=O)[C@H](CC(N)=O)NC(=O)[C@H](CCC(=O)O)NC(=O)CN3CCN(CC(=O)O)CCN(CC(=O)O)CCN(CC(=O)O)CC3)[C@@H](C)O)(C(=O)N[C@@H](Cc3ccncc3)C(N)=O)CC2)cc1F` [Compound 171] ({DOTA}-ENT[Phe(3-F)][azaGly]L[Api](Gly(N-(3-F-4-Me-benzyl)))[4Pal]-NH2): the inhibitory constant (Ki) was in the range of 10 to 100 nM.
With `CC(C)C[C@H](NC(=O)NNC(=O)[C@H](Cc1ccccc1)NC(=O)[C@@H](NC(=O)[C@H](CC(N)=O)NC(=O)[C@H](CCCCNC(=O)CN1CCN(CC(=O)O)CCN(CC(=O)O)CCN(CC(=O)O)CC1)NC(=O)[C@@H](Cc1ccc(O)cc1)NC(=O)CCc1ccc(I)cc1)[C@@H](C)O)C(=O)NC1(C(=O)N[C@@H](Cc2c[nH]c3ccccc23)C(N)=O)CCN(C(=N)N)CC1` [Compound 321] ({Hydrocinnamoyl(4-I)}-[dY]K(DOTA)NTF[azaGly]L[Api(1-amidino)]W-NH2) the figure was below 10 nM; with `CC(C)C[C@H](NC(=O)NNC(=O)[C@H](Cc1ccccc1)NC(=O)c1ccc(CNC(=O)[C@H](Cc2ccc3ccccc3c2)NC(=O)[C@@H](Cc2ccc(O)cc2)NC(=O)CN2CCN(CC(=O)O)CCN(CC(=O)O)CCN(CC(=O)O)CC2)cc1)C(=O)NC1(C(=O)N[C@@H](Cc2ccccc2)C(N)=O)CCN(C(=N)N)CC1` [Compound 288] ({DOTA}-[dY][2Nal][4Amb]F[azaGly]L[Api(1-amidino)]F-NH2), below 10 nM; with `Cc1ccc(CNCC(=O)N2CCC(NC(=O)[C@H](CC(C)C)NC(=O)NNC(=O)[C@H](Cc3ccc(-c4ccccc4)cc3)NC(=O)CN3CCC(NC(=O)CN4CCN(CC(=O)O)CCN(CC(=O)O)CCN(CC(=O)O)CC4)CC3)(C(=O)N[C@@H](Cc3c[nH]c4ccccc34)C(N)=O)CC2)cc1F` [Compound 142] ({DOTA}-[X1][Bip][azaGly]L[Api](Gly(N-(3-F-4-Me-benzyl)))W-NH2), below 10 nM.
With `Cc1ccc(CNCC(=O)N2CCC(NC(=O)[C@@H](/C=C/CNC(=O)[C@H](Cc3ccccc3)NC(=O)CCCCCNC(=O)CN3CCN(CC(=O)O)CCN(CC(=O)O)CCN(CC(=O)O)CC3)CC(C)C)(C(=O)N[C@@H](Cc3c[nH]c4ccccc34)C(N)=O)CC2)cc1F` [Compound 51], the Ki is below 10 nM.
The result for `CC(C)C[C@H](NC(=O)NNC(=O)[C@H](Cc1ccccc1)NC(=O)[C@@H](NC(=O)[C@H](CC(N)=O)NC(=O)[C@H](Cc1c2ccccc2cc2ccccc12)NC(=O)[C@@H](Cc1ccc(O)cc1)NC(=O)CCCCCNC(=O)CN1CCN(CC(=O)O)CCN(CC(=O)O)CCN(CC(=O)O)CC1)[C@@H](C)O)C(=O)NC1(C(=O)N[C@@H](Cc2c[nH]c3ccccc23)C(N)=O)CCN(C(=N)N)CC1` [Compound 184] ({DOTA-Ahx}-[dY][Ala(9-anthryl)]NTF[azaGly]L[Api(1-amidino)]W-NH2) reads below 10 nM.
With `Cc1ccc(CNCC(=O)N2CCC(NC(=O)[C@H](CC(C)C)NC(=O)NNC(=O)[C@H](Cc3ccccc3)NC(=O)[C@@H](NC(=O)[C@H](CC(N)=O)NC(=O)[C@@H](Cc3ccncc3)NC(=O)CCCCCNC(=O)CN3CCN(CC(=O)O)CCN(CC(=O)O)CCN(CC(=O)O)CC3)[C@@H](C)O)(C(=O)N[C@@H](Cc3c[nH]c4ccccc34)C(N)=O)CC2)cc1F` [Compound 296] ({DOTA-Ahx}-[d4Pal]NTF[azaGly]L[Api](Gly(N-(3-F-4-Me-benzyl)))W-NH2) the figure was below 10 nM.
As for `CC(C)C[C@H](NC(=O)NNC(=O)[C@H](Cc1ccccc1)NC(=O)[C@@H](NC(=O)[C@H](CC(N)=O)NC(=O)[C@@H](Cc1ccc2ccccc2c1)NC(=O)[C@@H](Cc1ccc(O)cc1)NC(=O)CCCCCNC(=O)CN1CCN(CC(=O)O)CCN(CC(=O)O)CCN(CC(=O)O)CC1)[C@@H](C)O)C(=O)NC1(C(=O)N[C@H](Cc2c[nH]c3ccccc23)C(N)=O)CCN(C(=O)CNCc2ccncc2)CC1` [Compound 370] ({DOTA-Ahx}-[dY][d2Nal]NTF[azaGly]L[Api](Gly(Nα-CH2(4-Pyr)))[dW]-NH2), the Ki was above 100 nM.
On to `Cc1ccc(CNCC(=O)N2CCC(NC(=O)[C@H](CC(C)C)NC(=O)NNC(=O)[C@H](Cc3ccccc3)NC(=O)[C@@H](NC(=O)[C@H](CC(N)=O)NC(=O)[C@H](CCC(=O)O)NC(=O)c3ccc(CNC(=O)CN4CCN(CC(=O)O)CCN(CC(=O)O)CCN(CC(=O)O)CC4)cc3)[C@@H](C)O)(C(=O)N[C@@H](Cc3ccc(C#N)cc3)C(N)=O)CC2)cc1F` [Compound 241] ({DOTA-4Amb}-ENTF[azaGly]L[Api](Gly(N-(3-F-4-Me-benzyl)))[Phe(4-CN)]-NH2), for which the Ki is below 10 nM.
Take `Cc1ccc(CNCC(=O)N2CCC(NC(=O)[C@H](CC(C)C)NC(=O)NNC(=O)[C@H](Cc3ccccc3)NC(=O)CCCCCNC(=O)[C@@H](CS(=O)(=O)O)NC(=O)[C@@H](CS(=O)(=O)O)NC(=O)CN3CCN(CC(=O)O)CCN(CC(=O)O)CCN(CC(=O)O)CC3)(C(=O)N[C@@H](Cc3c[nH]c4ccccc34)C(N)=O)CC2)cc1F` [Compound 130] ({DOTA}-[dCya][dCya][Ahx]F[azaGly]L[Api](Gly(N-(3-F-4-Me-benzyl)))W-NH2): the Ki is below 10 nM.
